The values that follow come from patent US20220340899A1, “STEREOSELECTIVE PH RESPONSIVE PEPTIDE DENDRIMERS FOR NUCLEIC ACID TRANSFECTION” (UNIVERSITÄT BERN, priority 2019, published 2022).

Several values for one entry are separate records, joined by “and”; a condition that tells them apart may be missing. Equal values may be shown once. Read-outs that look alike come from different tables or passages of the source. Bridges are numbered along the chain shown (N, C = ends). Roman numbers before positions name the chains, in order. Side-chain parts run from the residue outwards.

One data set deals with Cy3-siRNA. The experiment in a line: Dialysis of Cy3-siRNA complexes through 100 kDa cutoff membrane. The format is binding. The protocol: Dialysis: Complexes were formed with labelled Cy3-siRNA in OptiMEM (80 μmol, 1.6 μL from a 50 μM Milli-Q water solution in 50 μL OptiMEM pH 5 or pH 7.4) and peptide dendrimers (N/P ratio of 1-10, 168-1680 μmol, 1-14 μL from a 1 mg/mL Milli-Q water solution in 50 μL OptiMEM pH 5 or pH 7.4) or L2000 (w/w ratio of 2:1, 0.218-2.128 μg, 0.218-2.128 μL from the 1 mg/mL commercial solution in 50 μL OptiMEM pH 5 or pH 7.4) and incubated at room temperature for 30 minutes (100 μL, concentration of 80-800 nM Cy3-siRNA and 1.68-16.8 μM i.e. 12-120 μg/mL peptide dendrimers or 2.66-21.28 μg/mL L2000). The complexes were then diluted in OptiMEM pH 5 or pH 7.4 to a final volume of 800 μL (final concentration of 100 nM Cy3-siRNA and 0.210-2.1 μM i.e. 1.5-15 μg/mL peptide dendrimers or 0.266-2.66 μg/mL L2000). 500 μL of the complexes were added to Amicon Ultra 0.5 mL dialysis Eppendorfs with a 100 KDa cut-off (Sigma aldrich, Buchs, CH) and centrifugated at 14000 g for 10 minutes. For the second experiment, following centrifugation, lower compartment was replaced, 500 μL of OptiMEM at pH 5 or pH 7.4 was added to the Amicon Ultra 0.5 mL dialysis Eppendorfs top compartment and centrifuged one more time at 14000 g for 10 minutes. Then, 100 μL of the dialysed solutions from before dialysis, after dialysis and supplementary wash were transferred to a TPP 96-well plate (Faust Laborbedarf AG, Schaffhausen) and fluorescence measured at λex=547 nm and λem=563 nm on a Tecan Infinite M1000 Pro plate reader.

The conditions of data set [1]: for D [m^2 · s^−1] · 10^−11: 15 mg/mL, 303 K; for Rh [nm]: calculated from D by Stokes-Einstein.
Description: Diffusion NMR (DOSY) Measurements: Diffusion NMR experiments were performed using a Bruker DRX500 with solutions of dendrimer (15 mg/mL) in D2O (pH 5 or 7.4, at 303 K). The gradient with a maximum strength of 50×10^−4 T·cm^−1 was calibrated using the HOD proton signal in D2O (99.997%). The diffusion time was 125 ms and the gradient duration ? was 6 ms. Data analysis was performed by using the Bruker Simfit software and the diffusion coefficient D [m^2s^−1] was derived from peak area and intensities. The hydrodynamic radii were calculated from the diffusion coefficient D using the Stokes-Einstein equation Rh=kT/6πηD with Boltzmann constant k=1.380×10^−23 JK^−1, temperature T in K and viscosity η=1.089 mPa. s for D2O at 303 K.
Data set [2] can be described thus: Critical micellar concentration / aggregation by Nile red assay. It is filed as physicochemical. Conditions: for aggregation as function of pH: 0.1 mg/mL, PB pH 5-7.4; for self-aggregation (Nile Red assay): PB pH 7.4 and pH 5. The procedure: Critical Micellar Concentration (CMC): Nile red is known to have a higher fluorescence when being surrounded by a hydrophobic environment and this experiment is derived from known procedure but applied to 96-well plates. To see if the CMC determination is working in our hands with our assay, we first performed it with dodecylphosphocholine and found a value of 0.3125 mg/mL, corresponding to 0.9 mM which is in accordance with values between 0.9 and 1.1 mM from literature (data not shown). Briefly, Nile red (Sigma aldrich, Buchs, CH) was diluted in methanol at a concentration of 2 μM and 5 μL was added to each well of a TPP 96-well plate (Faust Laborbedarf AG, Schaffhausen) and dry under the fumehood air flow at room temperature for 1 h. Serial dilution of the peptide dendrimers, L2000 and dodecylphosphocholine (Avanti polar lipids, Alablaster, USA) were performed in 10 mM phosphate buffer (pH 5 or pH 7.4) starting from 1 mg/mL to 0.5 μg/mL and 50 μL was added to the plate containing the dried Nile red fluorophore (final concentration 0.2 μM). For the second experiment, solution of peptide dendrimers at 1 mg/mL in Milli-Q water were diluted to 0.1 mg/mL in 100 μL PB at pH ranging from 7.4 to 4 and added to dried Nile red. The plates were incubated for 2 h before measurement of fluorescence at λex=540 nm and λem=615 nm on a Tecan Infinite M1000 Pro plate reader. CMC values can be determined at the inflection point of the curves.

A short description of data set [3]: Dynamic light scattering and zeta potential of siRNA complexes. The format is physicochemical. The conditions noted are these: for zeta potential: siRNA complexes (800 nM siRNA, N/P 10 or L2000 2:1). The procedure:
Dynamic Light Scattering (DLS): Complexes were formed in phosphate buffer (PB) at pH 5 or pH 7.4 with siRNA (80 μmol, 1.6 μL from a 50 μM Milli-Q water solution in 50 μL PB at pH 5 or pH 7.4) and peptide dendrimers (N/P ratio of 10, 1680 μmol, 10-14 μL from a 1 mg/mL Milli-Q water solution in 50 μL PB at pH 5 or pH 7.4) or L2000 (w/w ratio of 2:1, 2.128 μg, 2.128 μL from the 1 mg/mL commercial solution in 50 μL PB at pH 5 or pH 7.4) and incubated at room temperature for 30 minutes (100 μL, final concentration of 800 nM siRNA and 16.8 μM i.e. 120 μg/mL peptide dendrimers or 21.28 μg/mL L2000). Then, 50 μL was transferred to a low-volume Univette (Sigma aldrich, Buchs, CH). The dynamic light scattering and Zeta potential were then measured on an Anton Paar Litesizer 500 (Buchs, CH) and the data processed by the software provided by the manufacturer (Kalliope) using the “number of particles” parameter.

[4] abbreviates: pH 5, particle volume divided by volume of monomer of 2 nm radius.
Setting [5] is: pH 7.4, particle volume divided by volume of monomer of 2 nm radius.

Turning to (RL)8(KRL)4(KLL)2KLLLL [MH44], in the data set on Cy3-siRNA, the “siRNA release after dialysis at pH 5 and re-equilibration to pH 7.4” value (from here on “siRNA release after dialysis”) is listed as “very low”.
For the substance (kl)8(kkl)4(kll)2kllll [DMH18], the “D [m^2 · s^−1] · 10^−11” value in data set [1] (pH 5, D2O) is 8.42 ± 0.09 [m^2 · s^−1] · 10^−11; in data set [1] (pH 7.4, D2O), 6.56 ± 0.29 [m^2 · s^−1] · 10^−11. Further, the “Rh [nm]” value in data set [1] (pH 5, D2O) was 2.42 nm and 2.42 ± 0.03 nm; in data set [1] (pH 7.4, D2O), 3.11 nm and 3.11 ± 0.13 nm. Further, the dendrimer/aggregate in data set [1] (setting [4]) is reported as about 2; in data set [1] (setting [5]), about 4. Further, the “siRNA release after dialysis” value in the data set on Cy3-siRNA is on record as “released a significant amount of FAM-siRNA”.
On to (kl)8(kkl)4(kll)2kk(C16)k(C16) [DMH13], for which the “aggregation as function of pH” value in data set [2] is recorded as “aggregated at a lower pH than amino acid only dendrimers”. Also, the zeta potential result in data set [3] (pH 5.0) is “+40.3 mV”; in data set [3] (pH 7.4) it was “+17.7 mV”. Further, the “D [m^2 · s^−1] · 10^−11” value in data set [1] (pH 5, D2O) was 4.37 ± 0.04 [m^2 · s^−1] · 10^−11; in data set [1] (pH 7.4, D2O), 4.10 ± 0.08 [m^2 · s^−1] · 10^−11. The “Rh [nm]” value was 4.66 ± 0.05 nm in data set [1] (pH 5, D2O); 4.95 nm and 4.97 ± 0.09 nm in data set [1] (pH 7.4, D2O). Besides, the dendrimer/aggregate is about 12 in data set [1] (setting [4]) and about 15 in data set [1] (setting [5]). In addition, the “siRNA release after dialysis” value with Cy3-siRNA is recorded as “lower”.
On to (KL)8(KKL)4(KLL)2KLLLL [MH18], for which the “D [m^2 · s^−1] · 10^−11” value in data set [1] (pH 5, D2O) is 8.10 ± 0.12 [m^2 · s^−1] · 10^−11; in data set [1] (pH 7.4, D2O) it was 6.41 ± 0.59 [m^2 · s^−1] · 10^−11. The “Rh [nm]” value was 2.52 nm and 2.52 ± 0.04 nm in data set [1] (pH 5, D2O); 3.21 nm and 3.21 ± 0.27 nm in data set [1] (pH 7.4, D2O). Further, the dendrimer/aggregate in data set [1] (setting [4]) was about 2; in data set [1] (setting [5]), about 4. Further, the “siRNA release after dialysis” value with Cy3-siRNA is “released a significant amount of FAM-siRNA”.
Regarding “(KL)8(KLL)4(KLL)2KLLLL [MH47] (I: H-KLK([Leu-Lys])LLKLLKLLLL-NH2 / II: H-KLK([Leu-Lys])LLKLL / III: H-KLK([Leu-Lys])LL / IV: H-KLK([Leu-Lys])LL; amide I:6-IV:C, I:9-II:C, II:6-III:C; SMILES CC(C)C[C@H](NC(=O)[C@H](CC(C)C)NC(=O)[C@H](CC(C)C)NC(=O)[C@H](CC(C)C)NC(=O)[C@H](CCCCNC(=O)[C@H](CC(C)C)NC(=O)[C@H](CC(C)C)NC(=O)[C@H](CCCCNC(=O)[C@H](CC(C)C)NC(=O)[C@H](CC(C)C)NC(=O)[C@H](CCCCNC(=O)[C@H](CC(C)C)NC(=O)[C@@H](N)CCCCN)NC(=O)[C@H](CC(C)C)NC(=O)[C@@H](N)CCCCN)NC(=O)[C@H](CC(C)C)NC(=O)[C@H](CC(C)C)NC(=O)[C@H](CCCCNC(=O)[C@H](CC(C)C)NC(=O)[C@@H](N)CCCCN)NC(=O)[C@H](CC(C)C)NC(=O)[C@@H](N)CCCCN)NC(=O)[C@H](CC(C)C)NC(=O)[C@H](CC(C)C)NC(=O)[C@H](CCCCNC(=O)[C@H](CC(C)C)NC(=O)[C@H](CC(C)C)NC(=O)[C@H](CCCCNC(=O)[C@H](CC(C)C)NC(=O)[C@@H](N)CCCCN)NC(=O)[C@H](CC(C)C)NC(=O)[C@@H](N)CCCCN)NC(=O)[C@H](CC(C)C)NC(=O)[C@H](CC(C)C)NC(=O)[C@H](CCCCNC(=O)[C@H](CC(C)C)NC(=O)[C@@H](N)CCCCN)NC(=O)[C@H](CC(C)C)NC(=O)[C@@H](N)CCCCN)C(N)=O)”, the “self-aggregation (Nile Red assay)” value in data set [2] is given as “strong self-aggregation at both pH”. In addition, the “particle size (in words)” value in data set [3] (DLS) is given as “largest particles”. Moreover, the “siRNA release after dialysis” value in the data set with Cy3-siRNA is “very low”.
In the case of (KL)8(KKL)4(KKL)2KLLLL [MH46], the “self-aggregation (Nile Red assay)” value in data set [2] was “did not show any measurable aggregation”. In addition, the zeta potential entry in data set [3] (pH 5.0) is on record as “+13.3 mV”; in data set [3] (pH 7.4), “+10.4 mV”. Further, the “D [m^2 · s^−1] · 10^−11” value in data set [1] (pH 5, D2O) is 10.27 ± 0.02 [m^2 · s^−1] · 10^−11; in data set [1] (pH 7.4, D2O) it was 9.89 ± 0.04 [m^2 · s^−1] · 10^−11. Also, the “Rh [nm]” value is 1.98 nm and 1.98 ± 0.03 nm in data set [1] (pH 5, D2O); 2.06 nm and 2.06 ± 0.07 nm in data set [1] (pH 7.4, D2O). Also, the dendrimer/aggregate in data set [1] (setting [4]) and in data set [1] (setting [5]) was about 1 in each case. Moreover, in the data set with Cy3-siRNA, the “siRNA release after dialysis” value was “released its siRNA”.
Turning to (KL)8(KKL)4(KLL)2KK(C16)K(C16) [MH13], in data set [2], the “aggregation as function of pH” value is recorded as “aggregated at a lower pH than amino acid only dendrimers”. The “D [m^2 · s^−1] · 10^−11” value in data set [1] (pH 5, D2O) is 4.92 ± 0.04 [m^2 · s^−1] · 10^−11; in data set [1] (pH 7.4, D2O), 4.17 ± 0.34 [m^2 · s^−1] · 10^−11. The “Rh [nm]” value in data set [1] (pH 5, D2O) was 4.14 ± 0.03 nm; in data set [1] (pH 7.4, D2O), 4.97 nm and 4.95 ± 0.44 nm. Moreover, the dendrimer/aggregate is about 9 in data set [1] (setting [4]) and about 15 in data set [1] (setting [5]). The “siRNA release after dialysis” value in the data set on Cy3-siRNA was “lower”.
Take (KL)8(KKL)4(KLL)2KNleNleNleNle [MH40]: the “siRNA release after dialysis” value with Cy3-siRNA is “released a significant amount of FAM-siRNA”.
Turning to (KL)8(KKL)4(KLL)2KK(C26) [MH06], the “aggregation as function of pH” value in data set [2] was “aggregated at a lower pH than amino acid only dendrimers”. The “siRNA release after dialysis” value in the data set on Cy3-siRNA was “lower”.
Consider (KL)8(KKL)4(KLL)2KFFF [MH22], for which the “siRNA release after dialysis” value in the data set on Cy3-siRNA was “released a significant amount of FAM-siRNA”.
